Values quoted from earlier work as cited in patent US7045323B2 (priority 1999, dated 2006).

Experiments:
[1] = system: HIV reverse transcription process
[2] = system: proviral DNA load; conditions: murine model of immunodeficiency; first stage of infection

| Compound | inhibition of the HIV reverse transcription process [1] | proviral DNA load [2] |
| --- | --- | --- |
| N[C@@H](CCC(=O)N[C@@H](CS)C(=O)NCC(=O)O)C(=O)O [GSH, glutathione] | can inhibit | able to decrease the proviral DNA load |
| CC(=O)N[C@@H](CS)C(=O)O [N-acetylcysteine] | can inhibit | – |
